Data set [1] concerns B16 murine melanoma cell line. The data set is described as follows: In vitro antiproliferative activity, MTT assay. It is filed as cell-based, mouse. Conditions: ratio of IC50 values of free Dau and conjugate. An excerpt:
(§1) The following cell cultures were used for the biological evaluation of the synthetic melanoma-specific peptide–drug (Dau–α-MSH) conjugates: A2058 (human skin melanoma, CVCL_1059), M24 (human metastatic skin melanoma, CVCL_D032), OCM-1 (human ocular choroidal melanoma-1, CVCL_6934), OCM-3 (human ocular choroidal melanoma-3, CVCL_6937), WM983A (human metastatic skin melanoma, CVCL_6808), WM983B (human metastatic skin melanoma CVCL_6809), SK-MEL-202 (human skin melanoma, ATCC HTB-68) and B16 (mouse melanoma, ATCC: CRL-6475). Cells were maintained in RPMI-1640 (Lonza, Basel, Switzerland), supplied with 10% FBS (fetal bovine serum; BioSera, Nuaille, France), L-glutamine, and 1% penicillin–streptomycin (from 10 000 units penicillin and 10 mg streptomycin/mL, Gibco, Dublin, Ireland) at 37 °C in a 5% CO2 atmosphere. No mycoplasma contamination was detected in the cell cultures.
(§2) The in vitro cytostatic effect of Dau–α-MSH conjugates was determined by two different assays. The full-length Dau–α-MSH conjugates were investigated by MTT assay using human and murine melanoma cell cultures. For determination of the cytostatic effect of these conjugates, the cells were treated with the compounds at 0.8–100 μM concentration range dissolved in the corresponding serum-free media for 24 h. After incubation, the treating solutions were removed, the cells were washed two times with serum-free medium and cultured for 48 h in the appropriate serum-containing cell culture medium. On the fourth day, the MTT assay was carried out to determine the IC50 values of the compounds. IC50 is the concentration that inhibits cell proliferation by 50%. Nonlinear regression analysis was performed with Prism 6 software (GraphPad, La Jolla, CA, USA) to generate sigmoidal dose–response curves, from which the 50% inhibitory concentration (IC50) values of the compounds were calculated and presented as micromolar (µM) units. The experiments were done in triplicate, and each experiment was repeated twice.
(Formazan colour is commonly taken as a measure of viable cells.)

For data set [2], the system named is A2058 human melanoma cell line. Description: In vitro antiproliferative activity, MTT assay. It is filed as cell-based. Conditions: ratio of IC50 values of free Dau and conjugate.
Source text: as §1, §2

For data set [3], the system named is M24 human melanoma cell line. The data set is described as follows: In vitro antiproliferative activity, MTT assay. Conditions: ratio of IC50 values of free Dau and conjugate. The data set is classed as cell-based.
Source text: as §1, §2

Data set [4] has as its system WM983B human melanoma cell line. Description: In vitro antiproliferative activity, MTT assay. Conditions: ratio of IC50 values of free Dau and conjugate. It is filed as cell-based.
Source text: as §1, §2

The subject of the next data set is A2058 cells. Description: In vitro cytostatic effect, PrestoBlue assay. The data set is classed as cell-based, human.
Source text: as §1
(§3) The in vitro cytostatic effect of the Dau–α-MSH conjugate with optimized sequence (Conj4) was investigated and compared with Conj2 by PrestoBlue assay using human melanoma cell cultures with different origins. For determination of the cytostatic effect of the conjugates, the cells were treated with the compounds at 0.003–200 μM concentration range dissolved in the corresponding serum-free medium for 72 h. After the treatment, the PrestoBlue assay (purchased from Invitrogen (Waltham, MA, USA) was carried out to determine the IC50 values of the compounds. Based on the IC50 values, we also determined the targeting index (TI) of the conjugates using the following equation [58]: TI=IC50neg/IC50posconjugate/IC50neg/IC50posfree drug

The test system of the next data set is OCM-1 cells. The data set is described as follows: In vitro cytostatic effect, PrestoBlue assay. It is filed as cell-based, human.
Source text: as §1, §3

The subject of the next data set is OCM-3 cells. The data set is described as follows: In vitro cytostatic effect, PrestoBlue assay. The data set is classed as cell-based, human.
Source text: as §1, §3

Another data set deals with SK-MEL-202 cells. Description: In vitro cytostatic effect, PrestoBlue assay. The data set is classed as cell-based, human.
Source text: as §1, §3

The next data set has as its system WM983A cells. The data set is described as follows: In vitro cytostatic effect, PrestoBlue assay. The data set is classed as cell-based, human.
Source text: as §1, §3

Another data set concerns WM983B cells. The data set is described as follows: In vitro cytostatic effect, PrestoBlue assay. The data set is classed as cell-based, human.
Source text: as §1, §3

Another data set concerns healthy male BALB/c mice. The data set is described as follows: In vivo acute toxicity study on healthy mice. Also noted: species or system mouse. Here is the method:
To determine toxicity of conjugates on healthy animals, in vivo acute toxicity study of Dau, Conj2 and Conj4 was performed. In the first experiment, adult BALB/c male mice (29–31 g) were exposed by one injection of the conjugate at the start of experiment, by intraperitoneal (i.p.) administration. A dose of 25 mg Dau content/kg was used, in a volume of 0.1 mL per mice (3 mice per condition). In the second in vivo experiment, NOD-SCID mice were exposed by four injections of the conjugates at the start of experiment, by intraperitoneal (i.p.) administration. Doses of 5, 10 and 15 mg Dau content/kg were used for the toxicity assay, at a volume of 0.1 mL per mice (3 mice per condition). The animals were kept under the conditions as described above.

For data set [5], the system named is OCM-1 human uveal melanoma tumor in male NOD-SCID mice. The data set is described as follows: In vivo tumor growth inhibition, OCM-1 xenograft. Also noted: species or system mouse. Conditions: for Normalized liver weight, value line 1 / Normalized liver weight, value line 2 / Normalized liver weight, value line 3 / Normalized liver weight, value line 4 / Normalized liver weight, value line 5 / Normalized liver weight, value line 6 / Normalized liver weight, value line 7 / Normalized liver weight, line printed as "ave": Table S2; for Normalized liver weight, value line 1 / Normalized liver weight, value line 2 / Normalized liver weight, value line 3 / Normalized liver weight, value line 4 / Normalized liver weight, value line 5 / Normalized liver weight, value line 6 / Normalized liver weight, value line 7: single animal; for Normalized liver weight, line printed as "ave": value line 8. Here is the method:
In the next experiment, the murine xenograft melanoma model establishment studies were performed using 8–12-week-old male NOD-SCID mice. For selection of the most suitable tumor model, three cell lines were then inoculated subcutaneously, OCM-1, SK-MEL-202, and WM983A. Cells were injected in a 0.1 mL RPMI-1640 basic medium in a concentration of 1.5·× 10^6 cells/mL, and the tumor growth and weight of mice were monitored 2–3 times per week. Subsequently, the antitumor effects of the Dau–α-MSH conjugates were determined in a mouse xenograft melanoma model selected as described above. Once the tumor volume reached 60 mm^3, mice were randomized and assigned to different groups for each treatment: 0.9% saline as a control, free daunomycin, Conj2 and Conj4. Treatments were injected intraperitoneally every fifth day, three times in total (daunomycin dosage of 5 mg/kg in case of Conj2, 10 mg/kg for Conj4, respectively, which was determined based on the toxicity tests, and 1 mg/kg were used for free drug–MTD). The weight and tumor size of mice were monitored during the whole experiment. On Day 33, mice were euthanized, and the primary tumor, heart, lung, liver, and spleen were harvested and stored in 4% formalin (Molar Chemicals, Halásztelek, Hungary). Liver weight was measured for the calculation of the toxicity of conjugates and daunomycin.

In data set [6] the test system is subcutaneous B16 murine melanoma in C57BL/6 male mice. The data set is described as follows: In vivo antitumor effect, subcutaneous B16 melanoma allograft. Conditions: conjugates 10 mg Dau content/kg.
Method: In the first experiment, B16 murine melanoma cells were subcutaneously (s.c.) injected into side of the latero-abdominal region of 35 C57BL/6 male mice (20–28 g), which murine strain is syngeneic for the B16 melanoma tumor cell line [59, 60], 6.5 ×·10^5 cells in a volume of 200 µL M199 medium was inoculated per animal. Mice were randomized in a stratified procedure considering two main factors. The primary factor was to obtain groups with the most equal tumor sizes, the secondary factor was to have groups in which the weight of mice are the most equal. The treatment started 9 days after cell inoculation when average tumor volume was 30 mm^3. Compounds were dissolved in saline solution (Teva, Debrecen, Hungary), and administered via i.p. injection in a volume of 0.1 mL per 10 g of bodyweight. […] Animal weight and tumor volumes were measured initially when the treatment started and at periodic intervals following treatment. A digital caliper was used to measure the longest (a) and the shortest diameter (b) of a given tumor. The tumor volume was calculated using the formula V = ab^2 × π/6, whereby a and b represent the measured parameters (length and width). Termination of the experiment was 20 days after cell inoculation, i.e., 12 days after treatment started, since the average volume of the tumors in the control group reached over 1800 mm^3. The mice from all groups were sacrificed by cervical dislocation after which their tumors were harvested and weighed for antitumor effect assessment. Antitumor effect of treatments was evaluated measuring the tumor volume and calculating the percentage of how much the tumor volume grew in comparison to the starting tumor volume which was set arbitrarily for all tumors as 100% at the start of treatment.
The mark [7] stands for this setting: change compared to control group, minus = inhibition, free Dau 1 mg/kg.

Each structure is given as a SMILES string. Square brackets hold non-standard residues; d marks the D form. Peptide text beside a SMILES is read from it. * marks the point of attachment. Daunorubicin(13-NOCH2CO) = COc1cccc2c1C(=O)c1c(O)c3c(c(O)c1C2=O)C[C@@](O)(C(C)=NOCC(=O)*)C[C@@H]3O[C@H]1C[C@H](N)[C@H](O)[C@H](C)O1; Nle = CCCC[C@H](N)C(=O)O

On to `CCCC[C@H](NC(=O)[C@H](CO)NC(=O)[C@H](Cc1ccc(O)cc1)NC(=O)[C@H](CO)NC(C)=O)C(=O)N[C@@H](CCC(=O)O)C(=O)N[C@@H](Cc1c[nH]cn1)C(=O)N[C@@H](Cc1ccccc1)C(=O)N[C@@H](CCCNC(=N)N)C(=O)N[C@@H](Cc1c[nH]c2ccccc12)C(=O)NCC(=O)N[C@@H](CCCCNC(=O)CON=C(C)[C@]1(O)Cc2c(O)c3c(c(O)c2[C@@H](O[C@H]2C[C@H](N)[C@H](O)[C@H](C)O2)C1)C(=O)c1c(OC)cccc1C3=O)C(=O)N1CCC[C@H]1C(=O)N[C@H](C(N)=O)C(C)C` [Conj2, Ac-SYSNleEHFRWGK(Dau=Aoa)PV-NH2], for which the “Relative Potency” value worked out at 0.0093 in data set [1], 0.0125 in [2], 0.0103 in [3] and 0.0063 in data set [4]. In addition, the “Targeting Index (TI)” value in the data set on A2058 cells (A2058 (reference cell line), TI = (IC50neg/IC50pos conjugate)/(IC50neg/IC50pos free drug)) is reported as 1.00; in the data set with OCM-1 cells (OCM-1 versus A2058, TI = (IC50neg/IC50pos conjugate)/(IC50neg/IC50pos free drug)), 2.30; in the data set with OCM-3 cells (OCM-3 versus A2058, TI = (IC50neg/IC50pos conjugate)/(IC50neg/IC50pos free drug)) it was 1.85; with SK-MEL-202 cells (SK-MEL-202 versus A2058, TI = (IC50neg/IC50pos conjugate)/(IC50neg/IC50pos free drug)), 2.74; with WM983A cells (WM983A versus A2058, TI = (IC50neg/IC50pos conjugate)/(IC50neg/IC50pos free drug)), 1.90; in the data set on WM983B cells (WM983B versus A2058, TI = (IC50neg/IC50pos conjugate)/(IC50neg/IC50pos free drug)) it was 2.61. Moreover, in the data set with healthy male BALB/c mice (after 14 days, one i.p. injection 25 mg Dau content/kg, BALB/c male mice), the “Changes in bodyweight, liver mass, general appearance and behavior” value is “no significant changes”. Moreover, the Acute toxicity result in the data set on healthy male BALB/c mice (one i.p. injection, up to 25 mg Dau content/kg, healthy BALB/c male mice, 3 mice, 14 days) was “does not show acute toxicity”. Further, the “Growth of the tumor reduced to % of the control size” value in [5] (Day 33, 5 mg/kg Dau content i.p., three treatments (days 15, 19, 23), p: 0.0056) is recorded as 55%. The “Normalized liver weight, value line 1” value in data set [5] came out at 3.77%. In addition, the “Normalized liver weight, value line 2” value in data set [5] is recorded as 5.10%. Also, the “Normalized liver weight, value line 3” value in data set [5] is reported as 4.35%. Besides, the “Normalized liver weight, value line 4” value in data set [5] was 4.14%. In data set [5], the “Normalized liver weight, value line 5” value was 4.73%. For the same compound, in data set [5], the “Normalized liver weight, value line 6” value worked out at 4.15%. In data set [5], the “Normalized liver weight, value line 7” value is given as 4.90%. Further, the “Normalized liver weight, line printed as "ave"” value in [5] was determined as 4.55%. Further, the “Tumor growth inhibition based on tumor weight, in comparison to the control group” value in data set [6] (after termination (day 20), free Dau 1 mg/kg i.p.) worked out at 38.6%. Moreover, the “Tumor weigh in % (Table S1)” value in data set [6] (change compared to control group, minus = decrease, free Dau 1 mg/kg) is -38.6%. The “Tumor volume in % (Table S1)” value in data set [6] (setting [7]) is on record as -75.4%. Moreover, in data set [6] (setting [7]), the “Tumor volume in mm3 (Table S1)” value is on record as -37.8%.

In the data set with A2058 cells (A2058, PrestoBlue, 0.003–200 μM in serum-free medium 72 h, mean ± SEM of three independent experiments), `CCCC[C@H](NC(C)=O)C(=O)N[C@@H](CCC(=O)O)C(=O)N[C@@H](Cc1c[nH]cn1)C(=O)N[C@H](Cc1ccccc1)C(=O)N[C@@H](CCCNC(=N)N)C(=O)N[C@@H](Cc1c[nH]c2ccccc12)C(=O)NCC(=O)N[C@@H](CCCCNC(=O)CON=C(C)[C@]1(O)Cc2c(O)c3c(c(O)c2[C@@H](O[C@H]2C[C@H](N)[C@H](O)[C@H](C)O2)C1)C(=O)c1c(OC)cccc1C3=O)C(N)=O` [Conj4, Ac-NleEHfRWGK(Dau=Aoa)-NH2] (Ac-[Nle]EH[dF]RWGK(Daunorubicin(13-NOCH2CO))-NH2) registered an IC50 of 7.15 ± 0.07 µM. In the data set on OCM-1 cells (OCM-1, PrestoBlue, 0.003–200 μM in serum-free medium 72 h, mean ± SEM of three independent experiments), this compound returned an IC50 of 29.68 ± 0.06 µM. The IC50 in the data set on OCM-3 cells (OCM-3, PrestoBlue, 0.003–200 μM in serum-free medium 72 h, mean ± SEM of three independent experiments) was 25.47 ± 0.08 µM. Further, in the data set with SK-MEL-202 cells (SK-MEL-202, PrestoBlue, 0.003–200 μM in serum-free medium 72 h, mean ± SEM of three independent experiments), it took 2.06 ± 0.1 µM to reach half-maximal inhibition (IC50). This compound showed an IC50 with WM983A cells (WM983A, PrestoBlue, 0.003–200 μM in serum-free medium 72 h, mean ± SEM of three independent experiments) of 13.5 ± 0.06 µM. The IC50 in the data set on WM983B cells (WM983B, PrestoBlue, 0.003–200 μM in serum-free medium 72 h, mean ± SEM of three independent experiments) was found to be 10.18 ± 0.06 µM. In data set [5], the “Normalized liver weight, value line 1” value amounted to 5.23%; the “Normalized liver weight, value line 2” value was found to be 4.34%; the “Normalized liver weight, value line 3” value worked out at 4.47%; the “Normalized liver weight, value line 4” value worked out at 4.50%. In data set [5], the “Normalized liver weight, value line 5” value turned out to be 5.35%; the “Normalized liver weight, value line 6” value came to 4.70%; the “Normalized liver weight, value line 7” value came out at 5.11%; the “Normalized liver weight, line printed as "ave"” value worked out at 4.62%.

By IC50 is commonly meant the concentration that inhibits the measured activity by half. High values mean a need for much substance, low ones inhibition by little substance.

(Values after paper PMC10816934, “Targeting the Melanocortin 1 Receptor in Melanoma: Biological Activity of α-MSH–Peptide Conjugates” (International Journal of Molecular Sciences, 2024).)
